Measurements from the kinase profiling compilation of Christmann-Franck et al. (2016).

Key:
Assay in all cases: KINOMEscan competition binding
Conditions in all cases: compound 10.0 µM
PLK2 (human) = PLK2 (human) (UniProt Q9NYY3)
AKT2 (human) = AKT2 (human) (UniProt P31751)
CAMK1D (human) = CAMK1D (human) (UniProt Q8IU85)
MAPK10 (human) = MAPK10 (human) (UniProt P53779)
RIPK4 (human) = RIPK4 (human) (UniProt P57078)
CHEK2 (human) = CHEK2 (human) (UniProt O96017)
NTRK1 (human) = NTRK1 (human) (UniProt P04629)
DYRK1B (human) = DYRK1B (human) (UniProt Q9Y463)
LRRK2 (human) = LRRK2 (human) (UniProt Q5S007)
MAPK11 (human) = MAPK11 (human) (UniProt Q15759)
BLK (human) = BLK (human) (UniProt P51451)
CDC2L2 (human) = CDC2L2 (human) (UniProt Q9UQ88)
MAP2K2 (human) = MAP2K2 (human) (UniProt P36507)
LTK (human) = LTK (human) (UniProt P29376)
CLK4 (human) = CLK4 (human) (UniProt Q9HAZ1)
FGFR4 (human) = FGFR4 (human) (UniProt P22455)
YES1 (human) = YES1 (human) (UniProt P07947)
PIK3C2G (human) = PIK3C2G (human) (UniProt O75747)
MAPK8 (human) = MAPK8 (human) (UniProt P45983)
NUAK2 (human) = NUAK2 (human) (UniProt Q9H093)
RPS6KA5 KD2 (human) = RPS6KA5 KD2 (human) (UniProt O75582)
PRKD3 (human) = PRKD3 (human) (UniProt O94806)
TESK1 (human) = TESK1 (human) (UniProt Q15569)
AURKC (human) = AURKC (human) (UniProt Q9UQB9)
NEK7 (human) = NEK7 (human) (UniProt Q8TDX7)
EIF2AK1 (human) = EIF2AK1 (human) (UniProt Q9BQI3)
MAP4K2 (human) = MAP4K2 (human) (UniProt Q12851)
HCK (human) = HCK (human) (UniProt P08631)
ERBB2 (human) = ERBB2 (human) (UniProt P04626)
ULK2 (human) = ULK2 (human) (UniProt Q8IYT8)
[1] = target: JAK3 JH1 catalytic (human) (UniProt P52333)
NIM1 (human) = NIM1 (human) (UniProt Q8IY84)
EPHB6 (human) = EPHB6 (human) (UniProt O15197)
ANKK1 (human) = ANKK1 (human) (UniProt Q8NFD2)
STK10 (human) = STK10 (human) (UniProt O94804)
[2] = system: KIT (human), P10721 [V559D/V654A]
CSF1R (human) = CSF1R (human) (UniProt P07333)
TEK (human) = TEK (human) (UniProt Q02763)
EPHB4 (human) = EPHB4 (human) (UniProt P54760)
TIE1 (human) = TIE1 (human) (UniProt P35590)

CHEK2 (human), sequence (O96017 whole entry, looked up): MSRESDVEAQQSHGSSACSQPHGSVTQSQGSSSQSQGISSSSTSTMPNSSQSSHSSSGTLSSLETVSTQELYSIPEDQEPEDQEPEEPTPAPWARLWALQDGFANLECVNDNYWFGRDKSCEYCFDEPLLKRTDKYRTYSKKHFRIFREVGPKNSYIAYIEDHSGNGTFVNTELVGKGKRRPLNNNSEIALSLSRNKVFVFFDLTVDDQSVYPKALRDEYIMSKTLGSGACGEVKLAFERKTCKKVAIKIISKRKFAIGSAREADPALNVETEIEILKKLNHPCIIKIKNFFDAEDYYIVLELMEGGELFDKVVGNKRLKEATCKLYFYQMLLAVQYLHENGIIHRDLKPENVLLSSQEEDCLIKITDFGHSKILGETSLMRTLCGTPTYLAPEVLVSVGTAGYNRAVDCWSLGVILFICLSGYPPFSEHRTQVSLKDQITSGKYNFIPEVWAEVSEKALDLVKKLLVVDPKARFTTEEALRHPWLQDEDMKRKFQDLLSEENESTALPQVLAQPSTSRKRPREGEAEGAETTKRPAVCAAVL
NEK7 (human), sequence (Q8TDX7 whole entry, looked up): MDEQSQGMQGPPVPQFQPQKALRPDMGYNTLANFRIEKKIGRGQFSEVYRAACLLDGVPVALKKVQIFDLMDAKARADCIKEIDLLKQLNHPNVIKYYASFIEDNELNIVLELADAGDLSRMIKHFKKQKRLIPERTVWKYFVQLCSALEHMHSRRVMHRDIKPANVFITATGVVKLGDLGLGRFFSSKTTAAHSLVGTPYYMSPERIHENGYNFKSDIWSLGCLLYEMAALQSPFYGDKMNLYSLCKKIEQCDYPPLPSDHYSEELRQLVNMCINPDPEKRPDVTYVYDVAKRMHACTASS
ERBB2 (human), sequence (P04626 whole entry, looked up): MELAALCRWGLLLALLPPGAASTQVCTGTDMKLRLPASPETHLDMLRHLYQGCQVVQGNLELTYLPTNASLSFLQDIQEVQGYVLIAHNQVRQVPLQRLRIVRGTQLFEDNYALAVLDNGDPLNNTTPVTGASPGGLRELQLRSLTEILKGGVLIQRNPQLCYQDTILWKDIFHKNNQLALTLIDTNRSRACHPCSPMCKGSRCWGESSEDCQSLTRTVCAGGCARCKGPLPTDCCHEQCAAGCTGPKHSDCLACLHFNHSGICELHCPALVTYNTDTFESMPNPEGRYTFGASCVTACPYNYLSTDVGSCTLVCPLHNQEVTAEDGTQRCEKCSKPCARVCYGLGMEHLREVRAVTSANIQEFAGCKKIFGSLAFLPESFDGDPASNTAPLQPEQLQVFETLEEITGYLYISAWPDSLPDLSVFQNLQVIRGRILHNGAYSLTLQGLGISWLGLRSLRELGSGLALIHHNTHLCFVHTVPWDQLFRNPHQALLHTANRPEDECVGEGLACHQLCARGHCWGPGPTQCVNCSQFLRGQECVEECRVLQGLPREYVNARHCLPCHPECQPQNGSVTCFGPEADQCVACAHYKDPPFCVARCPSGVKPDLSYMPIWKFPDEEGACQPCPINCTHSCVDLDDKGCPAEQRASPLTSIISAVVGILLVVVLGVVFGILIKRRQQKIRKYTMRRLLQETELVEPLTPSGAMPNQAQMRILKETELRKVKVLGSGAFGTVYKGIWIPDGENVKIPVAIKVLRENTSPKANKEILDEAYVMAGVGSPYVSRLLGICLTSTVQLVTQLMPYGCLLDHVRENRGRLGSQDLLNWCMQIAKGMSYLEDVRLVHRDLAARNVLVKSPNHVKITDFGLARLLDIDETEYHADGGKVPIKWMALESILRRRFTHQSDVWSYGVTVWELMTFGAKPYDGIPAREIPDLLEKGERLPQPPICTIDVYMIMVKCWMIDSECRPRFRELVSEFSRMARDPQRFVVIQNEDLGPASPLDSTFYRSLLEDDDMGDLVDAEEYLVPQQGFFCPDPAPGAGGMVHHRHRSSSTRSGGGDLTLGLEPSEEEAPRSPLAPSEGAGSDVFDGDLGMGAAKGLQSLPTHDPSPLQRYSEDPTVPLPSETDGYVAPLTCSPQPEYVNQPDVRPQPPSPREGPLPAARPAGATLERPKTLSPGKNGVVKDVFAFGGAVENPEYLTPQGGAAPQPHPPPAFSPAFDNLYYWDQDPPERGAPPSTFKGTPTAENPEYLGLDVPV
PRKD3 (human), sequence (O94806 whole entry, looked up): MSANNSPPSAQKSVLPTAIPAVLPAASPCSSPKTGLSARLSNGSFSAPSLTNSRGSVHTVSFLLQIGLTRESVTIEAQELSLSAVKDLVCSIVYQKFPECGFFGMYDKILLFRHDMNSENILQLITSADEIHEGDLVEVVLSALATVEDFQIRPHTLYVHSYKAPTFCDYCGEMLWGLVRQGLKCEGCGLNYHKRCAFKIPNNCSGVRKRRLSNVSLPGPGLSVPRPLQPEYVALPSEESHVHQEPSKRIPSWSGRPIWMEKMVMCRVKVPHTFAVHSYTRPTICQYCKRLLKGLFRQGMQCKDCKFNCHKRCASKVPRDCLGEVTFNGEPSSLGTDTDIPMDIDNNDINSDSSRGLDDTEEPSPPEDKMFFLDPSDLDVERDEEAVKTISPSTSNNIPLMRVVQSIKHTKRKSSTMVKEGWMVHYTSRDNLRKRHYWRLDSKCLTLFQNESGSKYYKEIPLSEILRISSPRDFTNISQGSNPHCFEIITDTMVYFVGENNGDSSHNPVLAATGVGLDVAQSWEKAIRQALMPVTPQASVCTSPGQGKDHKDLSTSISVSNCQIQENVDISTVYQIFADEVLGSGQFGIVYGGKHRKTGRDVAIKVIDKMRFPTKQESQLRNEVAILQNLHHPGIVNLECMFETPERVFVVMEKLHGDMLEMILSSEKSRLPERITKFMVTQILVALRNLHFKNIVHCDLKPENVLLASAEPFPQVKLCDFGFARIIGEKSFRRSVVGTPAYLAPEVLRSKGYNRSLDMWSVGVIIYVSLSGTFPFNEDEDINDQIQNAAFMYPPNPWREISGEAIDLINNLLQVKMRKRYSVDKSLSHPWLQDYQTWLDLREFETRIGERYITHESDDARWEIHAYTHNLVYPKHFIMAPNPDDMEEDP
RIPK4 (human), sequence (P57078 whole entry, looked up): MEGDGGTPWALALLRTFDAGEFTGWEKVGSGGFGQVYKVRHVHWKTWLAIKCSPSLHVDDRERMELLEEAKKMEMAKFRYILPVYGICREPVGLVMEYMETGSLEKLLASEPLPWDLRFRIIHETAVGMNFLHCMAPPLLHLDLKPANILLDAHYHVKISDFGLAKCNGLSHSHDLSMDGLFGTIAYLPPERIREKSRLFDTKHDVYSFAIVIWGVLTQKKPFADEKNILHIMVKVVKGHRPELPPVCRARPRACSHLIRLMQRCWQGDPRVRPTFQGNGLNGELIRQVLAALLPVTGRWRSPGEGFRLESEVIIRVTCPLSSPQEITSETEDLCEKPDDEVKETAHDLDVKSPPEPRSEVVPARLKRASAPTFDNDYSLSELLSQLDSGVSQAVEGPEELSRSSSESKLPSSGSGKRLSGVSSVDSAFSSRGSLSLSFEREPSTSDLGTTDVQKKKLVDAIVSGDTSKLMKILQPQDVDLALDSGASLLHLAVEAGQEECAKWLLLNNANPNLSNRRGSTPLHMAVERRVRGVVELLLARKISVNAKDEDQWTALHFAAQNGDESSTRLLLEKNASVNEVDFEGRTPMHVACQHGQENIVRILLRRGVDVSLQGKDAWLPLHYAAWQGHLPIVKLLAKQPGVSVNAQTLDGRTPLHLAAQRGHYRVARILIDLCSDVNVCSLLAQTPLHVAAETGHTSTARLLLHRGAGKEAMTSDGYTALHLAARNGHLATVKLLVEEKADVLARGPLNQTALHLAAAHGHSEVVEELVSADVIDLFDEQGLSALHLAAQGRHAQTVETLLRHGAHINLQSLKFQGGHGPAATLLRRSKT
LTK (human), sequence (P29376 whole entry, looked up): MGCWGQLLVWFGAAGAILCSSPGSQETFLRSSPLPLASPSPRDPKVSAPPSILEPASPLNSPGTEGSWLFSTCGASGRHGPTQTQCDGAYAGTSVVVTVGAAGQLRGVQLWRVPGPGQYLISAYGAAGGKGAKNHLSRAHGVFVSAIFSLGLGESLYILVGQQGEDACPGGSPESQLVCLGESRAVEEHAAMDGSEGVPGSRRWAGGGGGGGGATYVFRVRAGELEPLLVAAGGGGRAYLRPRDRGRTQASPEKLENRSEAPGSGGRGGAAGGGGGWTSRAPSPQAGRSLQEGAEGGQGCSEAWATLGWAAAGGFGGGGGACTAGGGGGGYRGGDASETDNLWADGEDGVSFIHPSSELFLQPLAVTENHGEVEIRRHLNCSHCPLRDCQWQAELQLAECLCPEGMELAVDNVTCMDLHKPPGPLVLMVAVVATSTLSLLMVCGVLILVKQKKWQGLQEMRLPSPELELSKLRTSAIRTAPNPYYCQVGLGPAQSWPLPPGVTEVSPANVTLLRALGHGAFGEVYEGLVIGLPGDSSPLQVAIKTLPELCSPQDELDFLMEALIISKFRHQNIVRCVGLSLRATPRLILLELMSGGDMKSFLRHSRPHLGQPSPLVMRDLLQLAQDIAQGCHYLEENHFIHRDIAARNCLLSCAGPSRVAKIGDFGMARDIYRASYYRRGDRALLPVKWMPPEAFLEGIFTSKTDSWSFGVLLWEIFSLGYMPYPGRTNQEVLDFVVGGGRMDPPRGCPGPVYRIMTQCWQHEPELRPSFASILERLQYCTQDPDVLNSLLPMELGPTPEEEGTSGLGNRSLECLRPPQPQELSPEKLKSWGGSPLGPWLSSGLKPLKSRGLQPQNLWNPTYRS
AURKC (human), sequence (Q9UQB9 whole entry, looked up): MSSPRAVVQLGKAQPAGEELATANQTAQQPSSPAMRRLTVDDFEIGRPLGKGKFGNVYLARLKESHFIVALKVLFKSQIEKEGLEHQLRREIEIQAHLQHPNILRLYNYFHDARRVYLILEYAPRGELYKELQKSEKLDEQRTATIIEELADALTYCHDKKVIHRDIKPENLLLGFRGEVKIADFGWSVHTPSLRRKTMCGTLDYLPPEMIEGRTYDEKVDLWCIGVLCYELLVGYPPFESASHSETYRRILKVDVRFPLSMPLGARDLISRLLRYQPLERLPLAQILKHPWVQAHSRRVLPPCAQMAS

Compound | kinase still bound, per cent of control (PLK2 (human)) | kinase still bound, per cent of control (AKT2 (human)) | kinase still bound, per cent of control (CAMK1D (human)) | kinase still bound, per cent of control (MAPK10 (human)) | kinase still bound, per cent of control (RIPK4 (human)) | kinase still bound, per cent of control (CHEK2 (human)) | kinase still bound, per cent of control (NTRK1 (human)) | kinase still bound, per cent of control (DYRK1B (human)) | kinase still bound, per cent of control (MAPK11 (human)) | kinase still bound, per cent of control (CDC2L2 (human)) | kinase still bound, per cent of control (MAP2K2 (human)) | kinase still bound, per cent of control (LTK (human)) | kinase still bound, per cent of control (CLK4 (human)) | kinase still bound, per cent of control (FGFR4 (human)) | kinase still bound, per cent of control (YES1 (human)) | kinase still bound, per cent of control (PIK3C2G (human)) | kinase still bound, per cent of control (MAPK8 (human)) | kinase still bound, per cent of control (NUAK2 (human)) | kinase still bound, per cent of control (RPS6KA5 KD2 (human)) | kinase still bound, per cent of control (PRKD3 (human)) | other results
CNC(=O)c1cc(Oc2ccc(NC(=O)Nc3ccc(Cl)c(C(F)(F)F)c3)cc2)ccn1 | 71% | 70% | 96% | 100% | 92% | 100% | 16% | 92% | 0.2% | 85% | 86% | 88% | 52% | 65% | 69% | 80% | 100% | 100% | 100% | 67% | kinase still bound, per cent of control (LRRK2 (human)): 77%; kinase still bound, per cent of control (BLK (human)): 31%; kinase still bound, per cent of control (TESK1 (human)): 62%; kinase still bound, per cent of control (AURKC (human)): 100%; kinase still bound, per cent of control (NEK7 (human)): 100%; kinase still bound, per cent of control (EIF2AK1 (human)): 57%; kinase still bound, per cent of control (MAP4K2 (human)): 100%; kinase still bound, per cent of control (HCK (human)): 27%; kinase still bound, per cent of control (ERBB2 (human)): 100%; kinase still bound, per cent of control (ULK2 (human)): 89%; kinase still bound, per cent of control [1]: 58%; kinase still bound, per cent of control (NIM1 (human)): 97%; kinase still bound, per cent of control (EPHB6 (human)): 3%; kinase still bound, per cent of control (ANKK1 (human)): 100%; kinase still bound, per cent of control (STK10 (human)): 0%
COc1cc(N2CCN(C)CC2)ccc1Nc1ncc2c(n1)N(C)c1ccccc1C(=O)N2C | 100% | 100% | 100% | 100% | 100% | 30% | 100% | 100% | 100% | 100% | 100% | 100% | 100% | 5.6% | 100% | 100% | 100% | 14% | 100% | 5.4% | kinase still bound, per cent of control [2]: 100%; kinase still bound, per cent of control (CSF1R (human)): 16%; kinase still bound, per cent of control (BLK (human)): 100%; kinase still bound, per cent of control (TESK1 (human)): 100%; kinase still bound, per cent of control (AURKC (human)): 100%; kinase still bound, per cent of control (NEK7 (human)): 100%; kinase still bound, per cent of control (TEK (human)): 100%; kinase still bound, per cent of control (MAP4K2 (human)): 100%; kinase still bound, per cent of control (HCK (human)): 100%; kinase still bound, per cent of control (EPHB4 (human)): 100%; kinase still bound, per cent of control (ERBB2 (human)): 100%; kinase still bound, per cent of control (ULK2 (human)): 0.5%; kinase still bound, per cent of control [1]: 100%; kinase still bound, per cent of control (NIM1 (human)): 100%; kinase still bound, per cent of control (EPHB6 (human)): 34%; kinase still bound, per cent of control (ANKK1 (human)): 100%; kinase still bound, per cent of control (TIE1 (human)): 100%; kinase still bound, per cent of control (STK10 (human)): 100%
C[C@@H](Oc1cc(-c2cnn(C3CCNCC3)c2)cnc1N)c1c(Cl)ccc(F)c1Cl | 73% | 100% | 37% | 80% | 8.2% | 100% | 0.1% | 84% | 100% | 0.35% | 54% | 0.3% | 100% | 98% | 17% | 22% | 100% | 5.5% | 95% | 3% | kinase still bound, per cent of control [2]: 100%; kinase still bound, per cent of control (CSF1R (human)): 0.15%; kinase still bound, per cent of control (LRRK2 (human)): 97%; kinase still bound, per cent of control (AURKC (human)): 3.4%; kinase still bound, per cent of control (NEK7 (human)): 6.7%; kinase still bound, per cent of control (TEK (human)): 1%; kinase still bound, per cent of control (EPHB4 (human)): 4.8%; kinase still bound, per cent of control (ULK2 (human)): 4.7%; kinase still bound, per cent of control [1]: 0.65%; kinase still bound, per cent of control (NIM1 (human)): 12%; kinase still bound, per cent of control (EPHB6 (human)): 0.2%; kinase still bound, per cent of control (ANKK1 (human)): 4.2%; kinase still bound, per cent of control (STK10 (human)): 0%
COc1cc2ncn(-c3cc(OCc4ccccc4C(F)(F)F)c(C(N)=O)s3)c2cc1OC | 0.2% | 100% | 100% | 89% | 100% | 100% | 78% | 87% | 88% | 99% | 85% | 100% | 45% | 77% | 97% | 100% | 100% | 6% | 76% | 100% | kinase still bound, per cent of control [2]: 100%; kinase still bound, per cent of control (LRRK2 (human)): 80%; kinase still bound, per cent of control (TESK1 (human)): 73%; kinase still bound, per cent of control (AURKC (human)): 27%; kinase still bound, per cent of control (NEK7 (human)): 74%; kinase still bound, per cent of control (TEK (human)): 57%; kinase still bound, per cent of control (MAP4K2 (human)): 53%; kinase still bound, per cent of control (HCK (human)): 72%; kinase still bound, per cent of control (EPHB4 (human)): 87%; kinase still bound, per cent of control (ERBB2 (human)): 100%; kinase still bound, per cent of control [1]: 40%; kinase still bound, per cent of control (NIM1 (human)): 88%; kinase still bound, per cent of control (EPHB6 (human)): 9.9%; kinase still bound, per cent of control (ANKK1 (human)): 80%; kinase still bound, per cent of control (TIE1 (human)): 31%; kinase still bound, per cent of control (STK10 (human)): 0%
